{
  "source": "patent US11192913B2",
  "about": "“C-glycoside amine derivatives and methods of making” (The United States of America, as Represented by the …, priority 2020, dated 2021)",
  "key": {"[1]": {"tested_on": "B. cereus", "settings": "Staron et al. 2018; cited from earlier work"}, "[2]": {"tested_on": "Bacillus subtilis", "settings": "Zhao et al. 2015; cited from earlier work"}, "[3]": {"tested_on": "Escherichia coli", "settings": "Zhao et al. 2015; cited from earlier work"}, "[4]": {"tested_on": "Streptococcus mutans", "settings": "Watanabe et al. 2000; cited from earlier work"}, "[5]": {"tested_on": "all gram positive organisms tested", "settings": "against all gram positive organisms tested", "protocol": "(§1) When surfactants are used in detergent formulations, antibiotic activity is an important trait. The antibiotic activity of the surfactants prepared from the saccharides glucose, maltose, and lactose, and 2-undecanone were measured against several microorganisms of interest in the food, human health, and agricultural areas. […] The CMC values for the β-C-glycoside 2-aminoundecanes were 0.1-5.5 mM.\n(§2) Summary: β-C-glycoside ketone derivatives of saccharides glucose, lactose, and maltose were converted to amines via a reductive amination using 2 wt % Rh/HMS (Rh/C or Rh/Al2O3 can be used) in ammoniacal methanol under about 500 psi H2 (pressure can be about 350 psi). The amines were isolated and then these molecules were used as the amine in the reductive amination of 2-undecanone prepared from the seed oil of Cuphea. The resulting β-C-glycoside 2-aminoundecanes were characterized by MALDI-TOF mass spectrometry, 2D nmr, and CHN analyses. The detergency of the products was measured by fluorescence detection to measure the critical micelle concentration."}, "[6]": {"tested_on": "Envinia amylovora", "assay": "Antimicrobial activity", "assay_type": "cell-based", "settings": "gram negative Erwinia", "protocol": "as §1, §2"}, "[7]": {"tested_on": "Escherichia coli", "assay": "Antimicrobial activity", "assay_type": "cell-based", "settings": "gram negative Escherichia", "protocol": "as §1, §2"}},
  "note": "Where two headings read alike, the source gives them in different places.",
  "data": [
    {"molecule": "dodecanoyl lactose", "values": [
      {"measurement": "MIC", "setting": "[1]", "result": 5900, "unit": "µM"}
    ]},
    {"molecule": "sucrose caprate", "values": [
      {"measurement": "MIC", "setting": "[2]", "result": 2500, "unit": "µM"},
      {"measurement": "MIC", "setting": "[3]", "result": 10000, "unit": "µM"}
    ]},
    {"molecule": "Galactose laurate", "values": [
      {"measurement": "MIC", "setting": "[4]", "result": 140, "unit": "µM"}
    ]},
    {"molecule": "CCCCCCCCCC(C)NC(C)C[C@@H]1O[C@H](CO)[C@@H](O)[C@H](O)[C@H]1O", "note": "(some centres unmarked) [glucose derivative, Glucose C-glycoside 2-aminoundecane]", "values": [
      {"measurement": "minimum bactericide concentration", "setting": "[5]", "result": 620, "unit": "µM"},
      {"measurement": "minimum inhibitory concentration", "setting": "[5]", "result": 310, "unit": "µM"},
      {"measurement": "MIC", "setting": "[6]", "result": 620, "unit": "µM"},
      {"measurement": "MIC", "setting": "[7]", "result": 620, "unit": "µM"}
    ]}
  ]
}
